Experimental data: patent US12213988B2 (ASTRAZENECA AB, priority 2020, dated 2025)
Where two headings read alike, the source gives them in different places.

Columns and labels:
[1] = tested on: patients with chronic kidney disease (CKD)
Protocol: The study population chosen for this study included a broad population of patients with impaired kidney function. The target population had CKD (defined as eGFR ≥25 and ≤75 mL/min/1.73 m^2) with albuminuria (defined as urine albumin creatinine ratio [UACR]≥200 and ≤5000 mg/g) with or without type 2 diabetes (T2D).
Patients included in the study satisfied the following criteria: • Female or male aged ≥18 years at the time of consent. • eGFR ≥25 and ≤75 mL/min/1.73 m^2 (CKD-EPI Formula) at visit 1. • Evidence of increased albuminuria 3 months or more before visit 1 and UACR ≥200 and ≤5000 mg/g at visit 1. • Stable, and for the patient maximum tolerated labelled daily dose, treatment with ACE-I or ARB for at least 4 weeks before visit 1, if not medically contraindicated.
The primary outcome measure was based on the requirements as outlined in the European Medicines Agency (EMA)'s draft guideline, which states that a composite endpoint of ≥50% sustained decline in eGFR, end stage renal disease (ESRD), and renal death (death due to ESRD when dialysis is not given) are acceptable outcome measures (EMA 2016). This endpoint has also been used in a number of previous outcome studies.
The primary variable was the time to first event included in the primary composite endpoint. The primary analysis was based on the intention to treat (ITT) principle using the FAS.

[2] = tested on: patients with chronic kidney disease (CKD); remark: listed apart in the source
[3] = tested on: patients with CKD and prediabetes
[4] = tested on: patients with heart failure with reduced ejection fraction
[5] = vs placebo or standard of care CKD agent alone, in words
[6] = vs placebo or standard of care CKD agent alone, in words, listed as Dapagliflozin
[7] = Dapa 10 mg (N = 2149), on-treatment period per Table 2 footnote
[8] = No diabetes, Dapa 10 mg (N = 696), on- and off-treatment periods
[9] = patients with T2DM, Dapa 10 mg (N = 1453), on- and off-treatment periods
[10] = dapagliflozin 10 mg once daily, CKD and prediabetes, median follow-up of 2.4 years
[11] = dapa group, DAPA-HF non-T2D patients

In the case of `CCOc1ccc(Cc2cc([C@@H]3O[C@H](CO)[C@@H](O)[C@H](O)[C@H]3O)ccc2Cl)cc1` [dapagliflozin], the “hazard ratio, primary end point (≥50% sustained decline in eGFR, ESRD, and CV or renal death)” value ([1]; dapagliflozin vs placebo, 95% CI 0.51 to 0.72, P<0.0001) is reported as 0.61, the “effect on death from any cause” value [1, 5] is reported as “superior” and the “effect on renal-only secondary endpoint (composite of ≥50% sustained decline in eGFR, ESRD & renal death; renal composite without CV death)” value [1, 5] is reported as “superior”. The “effect on secondary endpoint composite of CV death and hospitalisation for HF” value [1, 5] was “superior”, the “effect on time to first, second, or third hospitalisation for HF (exploratory endpoints)” value [1, 5] was “superior” and the “effect on death from any cause” value [1, 6] was “superior to placebo”. For the same compound, the “effect on renal-only secondary endpoint (composite of ≥50% sustained decline in eGFR, ESRD & renal death; renal composite without CV death)” value [1, 6] was “significant treatment effect”, the “effect on secondary endpoint composite of CV death and hospitalisation for HF” value [1, 6] was “Statistically significant reduction” and the “effect on composite of ≥50% sustained eGFR decline, ESRD, and renal or CV death (primary objective)” value ([1]; vs placebo, in words) was “clinically meaningful and statistically significant reduction”. For the same compound, the “SAE: Infections and infestations” value ([2]; Dapa 10 mg (N = 2149), on-treatment period) was 171 (8.0) Number (%) of subjects, the “Any AE with outcome = death” value [2, 7] was 106 (4.9) Number (%) of subjects and the “Any SAE (including events with outcome = death)” value (“Any SAE” for short) [2, 7] was 633 (29.5) Number (%) of subjects. For the same compound, the “Any AE with outcome = death” value [2, 8] was 17 (2.4) Number (%) of subjects, the “Any SAE” value [2, 8] was 150 (21.6) Number (%) of subjects and the “Deaths, SAEs (serious adverse events) and DAEs (discontinuations due to adverse event)” value ([2]; dapagliflozin group compared with placebo group, in words) was “fewer”. For the same compound, the “AEs leading to dose reduction” value ([2]; human, in vivo) was “few but more common”, the “patients reported SAEs, overall” value ([2]; human, in vivo) was “fewer” and the “Any AE with outcome = death” value [2, 9] was 89 (6.1) Number (%) of subjects. For the same compound, the “Any SAE” value [2, 9] was 483 (33.2) Number (%) of subjects, the “T2D developed in” value [3, 10] was 3.0% and the “T2D developed in (patients/group)” value [3, 10] was 21/697. The “event rate of newly diagnosed T2D” value ([3]; dapagliflozin 10 mg once daily, median follow-up of 2.4 years) was 1.5 /100-patient years, the “reduction in T2D incidence” value ([3]; dapagliflozin vs placebo) was 38% and the new-onset diabetes [4, 11] was 4.9%. The “new-onset diabetes (patients/group)” value [4, 11] was 64/1298, the “HR, new-onset diabetes” value ([4]; dapa vs placebo, 95% CI, 0.50-0.94, p=0.019, Cox) was 0.68 and the “reduction of new-onset diabetes” value ([4]; dapa vs placebo, DAPA-HF non-T2D patients) was 32%.
